Laboratory results published in publication PMC11359963 (Pharmaceutics, 2024).
Non-standard residues stand in square brackets, D forms with d. Residues, ends and D or L forms follow the SMILES beside them. β3hF = N[C@H](CC(=O)O)Cc1ccccc1

Legend:
[1] = tested on: TNF-α; assay: LPS-induced TNF-α production in human whole blood cell cultures (WEHI 164.13 bioassay); assay type: cell-based; details: for % of Inhibition vs. DMSO Control / TNF-α: LPS 1 µg/mL; for % of Inhibition vs. DMSO Control: TNF-α production; for TNF-α: whole blood diluted 10×, overnight, single cultures; for Suppressive Effect on TNF-α Production: summary of structure-activity relationship, LPS-induced, whole blood
Protocol: Human whole blood was diluted 10× with RPMI-1640 medium and distributed to 24-well culture plates in 1 mL aliquots. LPS was added to the culture at a concentration of 1 µg/mL. The studied peptides were used at concentrations of 1, 10, and 100 µg/mL. After overnight incubation, the supernatants were harvested and frozen at −20 °C until cytokine determination. TNF-α activity was determined using a bioassay with the highly sensitive cell line WEHI 164.13 [29]. Briefly, cells were seeded at a concentration of 2 × 10^4 cells/well in quadruplicate. Increasing dilutions of the assayed supernatant were mixed with the target cells in the presence of actinomycin D (1 µg/mL). After 20 h of incubation, MTT was added into the wells, and the cultures were incubated for an additional 4 h. Next, a lysing buffer (20% SDS with 50% DMF, pH 4.7) was added and the OD at 550/630 nm in a spectrophotometer was measured after 24 h. The detection limit of the assay was about 2.5 pg/mL. One unit of TNF-α activity was defined as an inverse of supernatant dilution where 50% cell death took place. No statistics were applied here since the data were derived from single cultures (wells).

[2] = tested on: carrageenan-induced inflammation of the air pouch, mouse model; assay: Carrageenan-induced inflammation of air pouches; assay type: in vivo; details: 100 µg/mouse into air pouch; for Eosinophils in peripheral blood: control mice 9.6%; for Neutrophils in peripheral blood: control mice 37%; for Degranulated mastocytes in air pouches: control untreated air pouches 89.7%
Text: (§1) C57Bl/6 female mice, 8–10 weeks old and weighing 19–22 g, were delivered by the Breeding Centre of Laboratory Animals at the Institute of Occupational Medicine, Łódź, Poland and used for this study. Mice had free access to granulated food and filtered water. The local ethics committee at the Institute of Immunology and Experimental Therapy, Wrocław, Poland, approved this study (permission #37/2012).
(§2) Blood smears were made on microscopic glasses, and the preparations were dried and stained with Giemsa and May–Grünwald dyes. The blood picture was evaluated in a light microscope at 1000× magnification in immersion oil. Up to 100 cells were counted per preparation. The results were shown as a percentage of mean values of respective cell types: mature neutrophils, band forms of neutrophils, eosinophils, lymphocytes, and monocytes.
Air pouches were formed by a subdermal injection into the dorsal area (under halothane anesthesia) of 5 mL of air (23 G × 11/4 needle, 5 mL syringe). On the next day, the air pouches were supplemented by 1 mL of air and injected with 0.5 mL of 1% carrageenan solution in PBS. The peptides were dissolved in DMSO (1 mg/100 µL DMSO) and supplemented with 0.9% NaCl solution to a volume of 0.2 mL. P03 and 4B8M peptides were injected into air pouches at a dose of 100 µg/mouse 30 min after carrageenan administration. BG mice received the respective amount of DMSO in 0.9% NaCl. Control mice were given only carrageenan solution plus the respective amount of DMSO. The next day, the mice were bled to perform blood smears and sacrificed. A total of 1 mL of 0.9% NaCl was injected into air pouches and the content aspirated. From this source, a total number was determined, the rest were centrifuged, and from a cell pellet, the smears were performed on microscopic glasses and stained with Giemsa and May Grunwald reagents. The cell composition of air pouch exudates was analyzed and the results were shown as a percentage (mean values of the respective cell types: neutrophils, band forms of neutrophils, eosinophils, basophils, lymphocytes, macrophages, and mastocytes).
Five to nine mice per group were used in the experiments. Results (where applicable) are presented as mean values ± standard error (SE). The Brown–Forsyth test was used to determine the homogeneity of variance between groups. When the variance was homogenous, analysis of variance (one-way ANOVA) was applied, followed by post hoc comparisons with Tukey’s test to estimate the significance of the differences between groups. Nonparametric data were evaluated with the Kruskal–Wallis analysis of variance (ANOVA of K–W), as indicated in the text. Significance was determined at p < 0.05. Statistical analysis was performed using […] 7.0 for Windows.

[3] = tested on: mouse splenocytes; assay: ConA-induced proliferation of mouse splenocytes (unpublished data); assay type: cell-based; details: other data (unpublished)
[4] = tested on: human PBMCs; assay: Proliferative response of PBMC to PHA (MTT); assay type: cell-based; details: summary of structure-activity relationship; PHA-induced PBMC proliferation, 1-100 µg/mL
Protocol: PBMCs were isolated by centrifugation on a Ficoll-uropoline gradient (density 1.077 g/mL) (Lymphoprep, PAA Laboratories, Linz, Austria), at 800× g for 20 min at 4 °C. The interphase cells were then washed three times with Hanks’ medium and re-suspended in the culture medium (RPMI-1640 with 10% addition of FCS, L-glutamine, sodium pyruvate, 2-mercaptoetanol, and the antibiotics streptomycin and penicillin) at a density of 2 × 10^6 cells/mL.
The isolated PBMCs were distributed into 96-well flat-bottom plates in 100 µL aliquots (2 × 10^5 cells/well). PHA was used at a concentration of 5 µg/mL. The compounds were tested at concentrations of 1, 10, and 100 µg/mL. DMSO at appropriate dilutions served as a control solvent. After a 4-day incubation in a cell culture incubator, the proliferative response of the cells was determined by the colorimetric MTT method [28] in a Dynatech 5000 spectrophotometer. Data (OPSYS MR Dynex Technologies, Chantilly, VA, USA) are presented as a mean optical density (OD) at 550 nm, with a reference wavelength of 630 nm, from quadruplicate wells ± standard error (SE). The control cultures contained no PHA or PHA without the studied compounds.
The assay was performed by the MTT colorimetric method [29]. […] After additional overnight incubation, the OD was measured at 550/630 nm (Dynatech 5000 spectrophotometer).

[5] = tested on: contact sensitivity to oxazolone mouse model; assay: Contact sensitivity to oxazolone; assay type: in vivo; details: 0.1% ointment on auricles
Text: as §1, §2
The test was performed as described by others, with some modifications. Mice were shaved on the abdomen and after 24 h, 100 µL of 0.5% oxazolone in acetone was applied topically. […] The ear edema was measured after 24 h using a spring caliper. […]
Five to nine mice per group were used in the experiments. […] Nonparametric data were evaluated with the Kruskal–Wallis analysis of variance (ANOVA of K–W), as indicated in the text. Significance was determined at p < 0.05. […]

[6] = 100 μg/mL; unpublished
[7] = tested on: murine leukemia L1210; details: 100 μg/mL; unpublished

Row | Compound | % of Inhibition vs. DMSO Control ([1]; peptide 1 µg/mL) | TNF-α ([1]; peptide 1 µg/mL) | % of Inhibition vs. DMSO Control ([1]; peptide 10 µg/mL) | TNF-α ([1]; peptide 10 µg/mL) | Suppressive Effect on TNF-α Production [1] | Eosinophils in peripheral blood [2] | Neutrophils in peripheral blood [2] | Degranulated mastocytes in air pouches [2] | Inhibition of concanavalin A (ConA)-induced proliferation of mouse splenocytes [3] | Suppressive Effect on Cell Proliferation [4] | Percentage of all myeloid cell types in circulating blood [5] | Inhibition of growth of A431 cells [6] | Inhibition of growth of L1210 cells [7]
1 | cyclo-[D-Pro-D-Pro-D-β^3-HoPhe-D-Phe-] [P06] | 1.6% | 8033 pg/mL | 4.4% | 7658 pg/mL | absent |  |  |  |  |  |  |  | 
2 | cyclo- [P02, cyclo-[D-Pro-D-Pro-β^3-HoPhe-D-Phe-]] | 19.0% | 6614 pg/mL | 20.7% | 6346 pg/mL | small |  |  |  |  |  |  |  | 
3 | cyclo-[Pro-D-Pro-β^3-HoPhe-Phe-] (head to tail) [P05] | 12.8% | 7123 pg/mL | 10.0% | 7203 pg/mL |  |  |  |  |  |  |  |  | 
4 | cyclo[Pro-Pro-β^3-HoPhe-D-Phe-] (head to tail) [P01] | 14.1% | 7016 pg/mL | 28.1% | 5757 pg/mL |  |  |  |  |  |  |  |  | 
5 | cyclo[Pro-Pro-β^3-HoPhe-Phe-] (head to tail) [P00, cyclo-[Pro-Pro-β^3-HoPhe-Phe-], reference compound] | 9.8% | 7364 pg/mL | 10.4% | 7176 pg/mL |  | 3.4% | 31.5% | 39.5% | moderate inhibition |  |  |  | 
6 | O=C1C[C@H](Cc2ccccc2)NC(=O)[C@@H]2CCCN2C(=O)[C@H]2CCCN2C(=O)[C@H](Cc2ccccc2)N1 [P03, cyclo-[D-Pro-Pro-β^3-HoPhe-Phe-]] (cyclo([dP]P[β3hF]F)) | 25.9% | 6052 pg/mL | 34.8% | 5222 pg/mL | strong | 2.0% | 23% | 28.7% |  | significant at 100 µg/mL | significantly reduced | 15% | 34%
7 | cyclo-[Pro-Pro-D-β^3-HoPhe-Phe-] (head to tail) [P04] | 33.1% | 5463 pg/mL | 33.8% | 5302 pg/mL | strong |  |  |  |  |  |  |  | 
8 | cyclo-[D-Pro-D-Pro-β^3-HoPhe-Phe-] (head to tail) [P07] | 21.0% | 6453 pg/mL | 9.0% | 7284 pg/mL | small |  |  |  |  |  |  |  | 
